Test results from patent US20230192617A1, “AZABICYCLIC(THIO)AMIDES AS FUNGICIDAL COMPOUNDS” (Bayer CropScience Aktiengesellschaft, priority 2020, published 2023).

Key:
[1] = tested on: Botrytis cinerea; experiment: In vivo preventive test on Botrytis cinerea (grey mould); details: 500 ppm of active ingredient, preventive spray on gherkin or cabbage, evaluated 4 to 5 days after inoculation, read-out: efficacy
Summary of the method: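 Preventive spray on cabbage or gherkin seedlings, with compound formulated in DMSO/acetone/Tween 80 and water-diluted, preceded spore inoculation by 24 hours. Cabbage was held 4 to 5 days at 20° C., 100% relative humidity; gherkin 4 to 5 days at 17° C., 90% relative humidity.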

[2] = tested on: Pyrenophora teres; experiment: In vivo preventive test on Pyrenophora teres (net blotch on barley); details: 240 h, 500 ppm of active ingredient, preventive spray on barley, evaluated 10 days after inoculation, read-out: efficacy
Summary of the method: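 Net blotch spores were sprayed onto barley leaves one day after foliar treatment with water-diluted DMSO/acetone/Tween 80 formulations (solvent-only controls). Plants were kept at 20° C: first 48 hours at 100% relative humidity, then 8 days at 70-80%.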

[3] = tested on: Pyrenophora teres; experiment: B-10. Pyrenophora teres in vitro cell test; type: cell-based; details: 144 h, 20 ppm of active ingredient, 6 days incubation, liquid culture, absorbance, read-out: efficacy (inhibition of fungal growth)
Summary of the method: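 Liquid-culture assay on a P. teres spore suspension with compounds added to the medium from DMSO solutions, final DMSO ≤1%. Mycelium growth read spectrometrically after 6 days. Inhibition calculated from absorbance against untreated control wells.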

[4] = tested on: Botrytis cinerea; experiment: B-11. Botrytis cinerea in vitro cell test; type: cell-based; details: 144 h, 20 ppm of active ingredient, 6 days incubation, liquid culture, absorbance, read-out: efficacy (inhibition of fungal growth)
Summary of the method: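 B. cinerea spores were grown in liquid culture with compound (DMSO ≤1% final). Mycelium growth was measured spectrometrically after 6 days, with inhibition taken as absorbance relative to untreated control wells.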

[5] = tested on: Colletotrichum lindemuthianum; experiment: B-8. Colletotrichum lindemuthianum in vitro cell test; type: cell-based; details: 144 h, 20 ppm of active ingredient, 6 days incubation, liquid culture, absorbance, read-out: efficacy (inhibition of fungal growth)
Summary of the method: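 Liquid-culture germination/growth test: compounds in ≤1% final DMSO were added to spore-containing medium. Fungal growth was quantified spectrophotometrically after 6 days of incubation and expressed as inhibition versus untreated controls.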

[6] = tested on: Alternaria alternata; experiment: Alternaria alternata in vitro cell test; type: cell-based; details: 120 h, 20 ppm of active ingredient, liquid culture, 5 days incubation, spectrometric measurement of mycelium growth, read-out: efficacy (inhibition of fungal growth)
Summary of the method: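 Spectrometric readout of mycelial growth after 5-day incubation gauged compound effects on spore germination and growth of A. alternata in liquid medium. Compounds were delivered in DMSO at ≤1% final. Absorbance was compared with untreated controls to give inhibition.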

[7] = Measurement of Log P values by HPLC on reversed phase columns (EEC directive 79/831 Annex V.A8); type: physicochemical; details: reversed phase HPLC column, method [a]: LC-UV, acidic range, 0.1% formic acid in water and acetonitrile as eluent
Summary of the method: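 Log P derived from retention on reversed-phase columns (EEC directive 79/831 Annex V.A8), LC-UV, acetonitrile gradient 10% to 95% against water containing 0.1% formic acid, 0.001 M ammonium acetate, or 0.1% phosphoric acid; several values per method separated by "+".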

[8] = tested on: Sphaerotheca fuliginea; experiment: In vivo preventive test on Sphaerotheca fuliginea (powdery mildew on cucurbits); details: Podosphaera fuliginea, 192 h; 500 ppm of active ingredient; preventive spray on gherkin; evaluated 8 days after inoculation; read-out: efficacy
Summary of the method: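 This is a preventive spray test on gherkin seedlings, with compound formulated in DMSO/acetone/Tween 80 in water and solvent-only controls. Spore inoculation followed one day after treatment. Incubation lasted 8 days at 20 °C, 70–80% RH.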

Row | Compound | pest or weed control at 500 ppm [1] [%] | pest or weed control at 500 ppm [2] [%] | inhibition at 20 ppm [3] [%] | inhibition at 20 ppm [4] [%] | inhibition at 20 ppm [5] [%] | inhibition at 20 ppm [6] [%] | chromatographic logP [7] | pest or weed control at 500 ppm [8] [%]
1 | Cc1cccc(Oc2cnc3ccccc3c2C(=O)NCC(F)(F)c2ccc(C)cc2C)c1 [I-222] | 90 to 100 | 80 to 89 | 90 to 100 | 90 to 100 | 90 to 100 | 90 to 100 | 4.3 | 90 to 100
2 | Cc1ccc(C(F)(F)CNC(=O)c2c(Oc3cccc(Cl)c3F)nnc3c2CCC3)c(Cl)c1 [I-143] | 90 to 100 | 90 to 100 | 90 to 100 | 90 to 100 | 90 to 100 | 90 to 100 | 3.84 | 90 to 100
3 | Cc1ccc(C(F)CNC(=O)c2c(Oc3cccc(C4CC4)c3F)nnc3c2CCCC3)c(C)c1 (stereo not drawn) [I-137] | 90 to 100 | 80 to 89 | 90 to 100 | 90 to 100 | 90 to 100 | 90 to 100 | 4 | 90 to 100
4 | Cc1ccc(C(F)(F)CNC(=O)c2c(Oc3cccc(C4CC4)c3F)nnc3c2CCC3)c(C)c1 [I-134] | 90 to 100 | 80 to 89 | 90 to 100 | 90 to 100 | 90 to 100 | 90 to 100 | 4.17 | 90 to 100
5 | O=C(NCC(F)(F)c1ccc(Br)cc1Cl)c1c(Oc2cccc(C(F)(F)F)c2)nnc2c1COCC2 [I-229] | 90 to 100 | 70 to 79 | 90 to 100 | 90 to 100 | 90 to 100 | 90 to 100 | 3.94 | 90 to 100
6 | Cc1ccc(C(F)(F)CNC(=O)c2c(Oc3cccc(C(F)(F)F)c3)nnc3c2COCC3)c(Cl)c1 [I-124] | 90 to 100 | 80 to 89 | 90 to 100 | 90 to 100 | 90 to 100 | 90 to 100 | 3.7 | 90 to 100
7 | Cc1cc(Br)ccc1C(F)(F)CNC(=O)c1c(Oc2cccc(Cl)c2F)nnc2c1CCCC2 [I-152] | 90 to 100 | 80 to 89 | 90 to 100 | 90 to 100 | 90 to 100 | 90 to 100 | 4.44 | 90 to 100
8 | O=C(NCC(F)c1ccc(Cl)cc1Cl)c1c(Oc2cccc(C3CC3)c2)nnc2c1CCCC2 (stereo not drawn) [I-119, 3-(3-cyclopropylphenoxy)-N-[2-(2,4-dichlorophenyl)-2-fluoro-ethyl]-5,6,7,8-tetrahydrocinnoline-4-carboxamide] | 90 to 100 | 90 to 100 | 90 to 100 | 90 to 100 | 90 to 100 | 90 to 100 | 4.11 | 90 to 100
9 | Cc1ccc(C(F)(F)CNC(=O)c2c(Oc3cccc(Cl)c3F)nnc3c2CCCC3)c(C)c1 [I-130] | 90 to 100 | 90 to 100 | 90 to 100 | 90 to 100 | 90 to 100 | 90 to 100 | 4 | 90 to 100
10 | Cc1ccc(C(F)(F)CNC(=O)c2c(Oc3cccc(Cl)c3)nnc3c2CCCC3)c(C)c1 [I-121] | 90 to 100 | 90 to 100 | 90 to 100 | 90 to 100 | 90 to 100 | 90 to 100 | 3.89 | 90 to 100
11 | Cc1ccc(C(F)(F)CNC(=O)c2c(Oc3cccc(C(F)F)c3)nnc3c2CCCC3)c(Cl)c1 [I-243] | 90 to 100 | 90 to 100 | 90 to 100 | 90 to 100 | 90 to 100 | 90 to 100 | 3.63 | 90 to 100
12 | Cc1cc(Cl)ccc1C(F)(F)CNC(=O)c1c(Oc2cccc(Cl)c2)nnc2c1CCCC2 [I-146] | 90 to 100 | 80 to 89 | 90 to 100 | 90 to 100 | 70 to 79 | 90 to 100 | 4.11 | 90 to 100
13 | Cc1ccc(C(F)(F)CNC(=O)c2c(Oc3cccc(Br)c3F)nnc3c2CCCC3)c(C)c1 [I-128] | 90 to 100 | 90 to 100 | 90 to 100 | 90 to 100 | 90 to 100 | 90 to 100 | 4.05 | 90 to 100
14 | Cc1cc(Br)ccc1C(F)(F)CNC(=O)c1c(Oc2cccc(C(F)(F)F)c2)nnc2c1COCC2 [I-127] | 90 to 100 | 70 to 79 | 90 to 100 | 90 to 100 | 90 to 100 | 90 to 100 | 3.94 | 90 to 100
15 | Cc1ccc(C(F)(F)CNC(=O)c2c(Oc3cccc(C(F)(F)F)c3)nnc3c2CCC3)c(C)c1 [I-132] | 90 to 100 | 90 to 100 | 90 to 100 | 90 to 100 | 90 to 100 | 90 to 100 | 4 | 90 to 100
16 | Cc1ccc(C(F)(F)CNC(=O)c2c(Oc3cccc(C4CC4)c3F)nnc3c2CCC3)c(Cl)c1 [I-144] | 90 to 100 | 80 to 89 | 90 to 100 | 90 to 100 | 90 to 100 | 90 to 100 | 4.05 | 90 to 100
17 | O=C(NCC(F)(F)c1ccc(Cl)cc1Cl)c1c(Oc2cccc(C(F)(F)F)c2)nnc2c1COCC2 [I-228] | 90 to 100 | 70 to 79 | 90 to 100 | 90 to 100 | 90 to 100 | 90 to 100 | 3.85 | 90 to 100
18 | O=C(NCC(F)(F)c1ccc(Br)cc1Cl)c1c(Oc2cccc(Cl)c2F)nnc2c1CCC2 [I-213] | 90 to 100 | 80 to 89 | 90 to 100 | 90 to 100 | 90 to 100 | 90 to 100 | 4.05 | 90 to 100
19 | Cc1ccc(C(F)(F)CNC(=O)c2c(Oc3cccc(C4CC4)c3F)nnc3ccccc23)c(C)c1 [I-071, 3-(3-cyclopropyl-2-fluoro-phenoxy)-N-[2-(2,4-dimethyl-phenyl)-2,2-difluoro-ethyl]cinnoline-4-carboxamide] | 90 to 100 | 90 to 100 | 90 to 100 | 90 to 100 | 90 to 100 | 90 to 100 | 4.54 | 90 to 100
20 | Cc1ccc(C(F)CNC(=O)c2c(Oc3cccc(Cl)c3F)nnc3c2CCCC3)c(C)c1 (stereo not drawn) [I-136] | 90 to 100 | 90 to 100 | 90 to 100 | 90 to 100 | 90 to 100 | 90 to 100 | 3.78 | 90 to 100
21 | O=C(NC[C@H](F)c1ccc(Cl)cc1Cl)c1c(Oc2cccc(C(F)(F)F)c2)cnc2ccoc12 (racemic) [I-067] | 90 to 100 | 80 to 89 | 90 to 100 | 90 to 100 | 90 to 100 | 90 to 100 | 4.18 | 90 to 100
